According to patent publication US20120165310A1, “ETHER DERIVATIVES OF BICYCLIC HETEROARYLS” (NOVARTIS AG, priority 2009, published 2012):

Biological target: T1, IGF-1R (Homo sapiens, UniProt P08069)
T1 construct: expressed in transfected cells; host or cells: Hek293 (Hek293-IGF1R)
Test: Cellular IGF-1R assay: capture ELISA (MSD) of receptor phosphorylation in Hek293 cells
Format: cell-based
Conditions: Hek293-IGF1R cells, 1 h pre-incubation, 10 min IGF stimulation, pIGF1R capture ELISA
Description: (§1) In this assay the activity of the compounds of the invention against Insulin-like growth factor I (IGF-I) induced autophosphorylation of the IGF-IR was determined. The assay was conducted as follows: Compound-mediated inhibition of IGF1R and INSR phosphorylation in Hek293 cells transduced with the corresponding receptors was assessed in a capture ELISA format using the MSD (Meso Scale Discovery) platform. Briefly, 30,000 cells washed and diluted in starvation medium (DMEM high glucose supplemented with 0.1% BSA) were seeded in 90 μL per well into 96-well plates pre-coated with poly-D-lysine (0.1 mg/mL in PBS/O). After 24 h incubation at 37° C. and 5% CO2, dose-response effects were determined with 3-fold serial compound dilutions, starting at 10 μM. The final vehicle concentration is 0.1% DMSO in all wells. Following pre-incubation with compounds for 1 h, receptor phosphorylation was triggered by a 10 min exposure to 1.0 ng/μL IGF for Hek293-IGF1R cells, and 5.0 ng/μL insulin for Hek293-InsR cells. Cell lysis was achieved by addition of 80 μL MSD lysis buffer per aspirated well, incubation on ice for 20 min, and a freeze-thaw cycle. Target phosphorylation was then assessed by transferring volumes corresponding to approx. 6 μg Hek293-IGF1R or 0.6 μg Hek293-InsR lysates to MSD assay plates pre-coated with total-IGF1R or total-InsR Abs, respectively. […] Immune complexes were detected by a SULFO-Tag™-coupled anti-rabbit IgG antibody in the presence of 150 μL MSD read-buffer. Light emission at 620 nm triggered by application of electric current was recorded on a MSD Sectorlmager 6000. Acquired raw data (mean Ru-ECL units) were processed in an Excel analysis template. The plate blank (MSD lysis buffer) was subtracted from all data points. The effect of a particular test compound concentration on receptor phosphorylation was expressed relative to the window defined by ligand-stimulated vs unstimulated control cells (set as 100%). IC50 values [nM] were determined using 4-parametric curve-fitting (XLfit software, V4.3.2).
as §1, with “Compound-mediated” for “In this assay the activity of the compounds of the invention against Insulin-like growth factor I (IGF-I) induced autophosphorylation of the IGF-IR was determined. The assay was conducted as follows: Compound-mediated”, “cells trans-duced” for “cells transduced”, “receptors were” for “receptors was”, “concentration was” for “concentration is”, “for Hek293-IGF1 R” for “for Hek293-IGF1R”, “with total-IGF1 R” for “with total-IGF1R”

T1 sequence (P08069 31-1367): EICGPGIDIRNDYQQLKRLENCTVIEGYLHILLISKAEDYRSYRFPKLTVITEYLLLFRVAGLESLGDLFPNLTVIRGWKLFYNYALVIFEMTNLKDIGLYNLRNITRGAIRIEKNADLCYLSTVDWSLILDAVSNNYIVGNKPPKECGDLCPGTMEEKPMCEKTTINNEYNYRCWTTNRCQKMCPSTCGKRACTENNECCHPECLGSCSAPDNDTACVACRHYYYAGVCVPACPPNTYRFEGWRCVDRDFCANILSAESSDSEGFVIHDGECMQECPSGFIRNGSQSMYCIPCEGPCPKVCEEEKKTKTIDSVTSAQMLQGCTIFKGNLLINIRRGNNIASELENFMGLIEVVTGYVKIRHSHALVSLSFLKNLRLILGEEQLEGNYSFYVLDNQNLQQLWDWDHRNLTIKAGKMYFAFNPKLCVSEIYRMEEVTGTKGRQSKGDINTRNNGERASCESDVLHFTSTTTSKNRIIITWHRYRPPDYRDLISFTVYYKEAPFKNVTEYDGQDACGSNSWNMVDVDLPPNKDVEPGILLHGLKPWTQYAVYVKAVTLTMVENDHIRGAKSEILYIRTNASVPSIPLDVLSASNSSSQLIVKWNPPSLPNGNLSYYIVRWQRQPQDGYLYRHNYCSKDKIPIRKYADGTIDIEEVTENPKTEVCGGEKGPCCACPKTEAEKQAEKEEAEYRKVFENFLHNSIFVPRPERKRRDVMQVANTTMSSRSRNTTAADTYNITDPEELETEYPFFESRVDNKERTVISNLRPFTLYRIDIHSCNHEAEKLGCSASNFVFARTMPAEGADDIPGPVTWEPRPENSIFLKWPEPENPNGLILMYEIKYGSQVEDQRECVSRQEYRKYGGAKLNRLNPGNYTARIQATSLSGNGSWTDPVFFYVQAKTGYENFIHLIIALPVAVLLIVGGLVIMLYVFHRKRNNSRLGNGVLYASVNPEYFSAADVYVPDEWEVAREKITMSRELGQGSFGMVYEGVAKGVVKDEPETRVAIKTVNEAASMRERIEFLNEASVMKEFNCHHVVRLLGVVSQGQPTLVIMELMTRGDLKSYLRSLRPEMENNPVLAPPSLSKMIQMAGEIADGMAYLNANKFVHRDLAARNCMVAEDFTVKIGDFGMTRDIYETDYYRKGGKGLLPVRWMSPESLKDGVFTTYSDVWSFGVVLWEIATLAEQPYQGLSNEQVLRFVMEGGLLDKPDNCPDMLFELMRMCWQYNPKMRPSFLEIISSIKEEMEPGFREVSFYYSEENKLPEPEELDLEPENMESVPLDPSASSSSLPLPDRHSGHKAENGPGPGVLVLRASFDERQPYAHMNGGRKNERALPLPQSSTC

| IC50 | Compound |
| --- | --- |
| 372 nM | Nc1ncnc2c1c(-c1cccc(OCC3CCCO3)c1)cn2[C@H]1C[C@@H](CN2CCC(F)(F)CC2)C1 (relative stereo) [Example 83, 7-[cis-3-(4,4-difluoro-piperidin-1-ylmethyl)-cyclobutyl]-5-[3-(tetrahydro-furan-2-ylmethoxy)-phenyl]-7H-pyrrolo[2,3-d]pyrimidin-4-ylamine] |
| 90 to 219 nM | Nc1ncnc2c1c(-c1cccc(OC[C@@H]3CCCO3)c1)cn2[C@H]1C[C@@H](CN2CCC(F)(F)CC2)C1 [Example 16, cis-7-[3-(4,4-Difluoro-piperidin-1-ylmethyl)-cyclobutyl]-5-{3-[(S)-1-(tetrahydrofuran-2-yl)methoxy]-phenyl}-7H-pyrrolo[2,3-d]pyrimidin-4-ylamine] |
| 372 nM | Nc1ncnc2c1c(-c1cccc(OCC3CCCCO3)c1)cn2[C@H]1C[C@H](CN2CC(O)C2)C1 (relative stereo) [Example 36, 1-(trans-3-{4-amino-5-[3-(tetrahydro-pyran-2-ylmethoxy)-phenyl]pyrrolo[2,3-d]pyrimidin-7-yl}-cyclobutylmethyl)-azetidin-3-ol] |
| 235 nM | Nc1ncnc2c1c(-c1cccc(OCC3CCCCO3)c1)cn2[C@H]1C[C@@H](CN2CC[C@@H](O)C2)C1 (stereo partly drawn) [Example 33, (R)-1-(cis-3-{4-amino-5-[3-(tetrahydro-pyran-2-ylmethoxy)-phenyl]-pyrrolo[2,3-d]pyrimidin-7-yl}-cyclobutylmethyl)-pyrrolidin-3-ol] |
| 254 nM | Nc1nccn2c1c(-c1cccc(OCC3CCCCO3)c1)nc2[C@H]1C[C@@H](CN2CCS(=O)(=O)CC2)C1 (stereo partly drawn) [Example 30, 3-[cis-3-(1,1-Dioxothiomorpholin-4-ylmethyl)-cyclobutyl]-1-[3-(tetrahydro-pyran-2-ylmethoxy)-phenyl]-imidazo[1,5-a]pyrazin-8-ylamine] |
| 45 to 120 nM | CC1(C)CCC(COc2cccc(-c3cn([C@H]4C[C@@H](CN5CCC(F)(F)CC5)C4)c4ncnc(N)c34)c2)O1 (single isomer, unassigned) [Example 54] |
| 17 nM | CC1(C)CCC(COc2cccc(-c3cn(C4CC(CN5CCS(=O)(=O)CC5)C4)c4ncnc(N)c34)c2)O1 (stereo not drawn) [Example 14, 5-[3-(5,5-dimethyl-tetrahydro-furan-2-ylmethoxy)phenyl]-7-[3-(1,1-dioxothiomorpholin-4-ylmethyl)-cyclobutyl]-7H-pyrrolo[2,3-d]pyrimidin-4-ylamine] |
| 116 nM | NC(=O)[C@H]1CCCN1C[C@H]1C[C@H](n2cc(-c3cccc(OCC4CCCO4)c3)c3c(N)ncnc32)C1 (stereo partly drawn) [Example 87, (R)-1-(trans-3-(4-amino-5-[3-(tetrahydro-furan-2-ylmethoxy)-phenyl]-pyrrolo[2,3-d]pyrimidin-7-yl}-cyclobutylmethyl)-pyrrolidine-2-carboxylic acid amide] |
| 32 to 37 nM | CC1(C)CCC(COc2cccc(-c3cn([C@H]4C[C@@H](CN5CCC(F)(F)CC5)C4)c4ncnc(N)c34)c2)O1 (relative stereo) [Example 53, 7-[cis-3-(4,4-difluoro-piperidin-1-ylmethyl)-cyclobutyl]-5-[3-(5,5-dimethyl-tetrahydro-furan-2-ylmethoxy)-phenyl]-7H-pyrrolo[2,3-d]pyrimidin-4-ylamine] |
| 57 nM | CC1(C)CCC(COc2cccc(-c3cn([C@H]4C[C@H](CN5CCC[C@@H]5C(N)=O)C4)c4ncnc(N)c34)c2)O1 (stereo partly drawn) [Example 72, (R)-1-(trans-3-{4-amino-5-[3-(5,5-dimethyl-tetrahydro-furan-2-ylmethoxy)-phenyl]pyrrolo[2,3-d]pyrimidin-7-yl}-cyclobutylmethyl)-pyrrolidine-2-carboxylic acid amide] |
| 4 to 22 nM | NC(=O)[C@@H]1CCCN1C[C@H]1C[C@@H](n2cc(-c3cccc(OC[C@H]4CCCCO4)c3)c3c(N)ncnc32)C1 [Example 43, (S)-1-[3-(4-amino-5-{3-[(R)-1-(tetrahydro-pyran-2-yl)methoxy]-phenyl}-pyrrolo[2,3-d]pyrimidin-7-yl)-cyclobutylmethyl]-pyrrolidine-2-carboxylic acid amide] |
| 15 nM | CC1(C)CCC(COc2cccc(-c3cn(C4CC(CN5CCC(O)C5)C4)c4ncnc(N)c34)c2)O1 [Example 57, (S)-1-(3-{4-amino-5-[3-(5,5-dimethyl-tetrahydro-furan-2-ylmethoxy)-phenyl]-5 pyrrolo[2,3-d]pyrimidin-7-yl}-cyclobutylmethyl)-pyrrolidin-3-ol] |
| 367 nM | CC1(C)CCC(COc2cccc(-c3cn([C@H]4CC[C@H](N5CCOCC5)CC4)c4ncnc(N)c34)c2)O1 (relative stereo) [Example 64, 5-[3-(5,5-dimethyl-tetrahydro-furan-2-ylmethoxy)-phenyl]-7-(trans-4-morpholin-4-yl-cyclohexyl)-7H-pyrrolo[2,3-d]pyrimidin-4-ylamine] |
| 33 nM | CS(=O)(=O)N1CCN([C@H]2C[C@@H](n3cc(-c4cccc(OCC56CCC(CC5)O6)c4)c4c(N)ncnc43)C2)CC1 (relative stereo) [Example 171, 7-[cis-3-(4-methanesulfonyl-piperazin-1-yl)-cyclobutyl]-5-[3-(7-oxa-bicyclo[2.2.1]hept-1-ylmethoxy)-phenyl]-7H-pyrrolo[2,3-d]pyrimidin-4-ylamine] |
| 195 nM | Nc1ncnc2c1c(-c1cccc(OCC3CCCCO3)c1)cn2C1CC(CN2CCCC2C(O)C(F)(F)F)C1 [Example 120, (1S)-1-((2S)-1-(((1S,3R)-3-(4-amino-5-(3-((tetrahydro-2H-pyran-2-yl)methoxy)phenyl)-7H-pyrrolo[2,3-d]pyrimidin-7-yl)cyclobutyl)methyl)pyrrolidin-2-yl)-2,2,2-trifluoroethanol] |
| 26 nM | CC1(C(N)=O)CCCN1CC1CC(n2cc(-c3cccc(OCC4CCCCO4)c3)c3c(N)ncnc32)C1 [Example 93, (2S)-1-(((1s,3R)-3-(4-amino-5-(3-((tetrahydro-2H-pyran-2-yl)methoxy)phenyl)-7H-pyrrolo[2,3-d]pyrimidin-7-yl)cyclobutyl)methyl)-2-methylpyrrolidine-2-carboxamide] |
| 115 to 194 nM | CN1CCN(C[C@H]2C[C@@H](n3cc(-c4cccc(OCC56CCC(CC5)O6)c4)c4c(N)ncnc43)C2)CC1=O (relative stereo) [Example 210, 4-(cis-3-{4-Amino-5-[3-(7-oxa-bicyclo[2.2.1]hept-1-ylmethoxy)-phenyl]-pyrrolo[2,3-d]pyrimidin-7-yl}-cyclobutylmethyl)-1-methyl-piperazin-2-one] |
| 178 nM | CN1CCN(C[C@H]2CC[C@@H](n3cc(-c4cccc(OCC56CCC(CC5)O6)c4)c4c(N)ncnc43)CC2)CC1 [Example 113, 5-(3-(7-oxabicyclo[2.2.1]heptan-1-ylmethoxy)phenyl)-7-((1S,4S)-4-((4-methylpiperazin-1-yl)methyl)cyclohexyl)-7H-pyrrolo[2,3-d]pyrimidin-4-amine] |
| 327 nM | Nc1ncnc2c1c(-c1cccc(OCC34CCC(CC3)O4)c1)cn2C1CC(O)(CN2CCC(O)C2)C1 (single isomer, unassigned) [Example 207] |
| 128 nM | Nc1nccn2c1c(-c1cccc(OCC34CCC(CC3)O4)c1)nc2[C@H]1C[C@@H](N2CCC(O)CC2)C1 [Example 187] |

| Compound | IC50 |
| --- | --- |
| NC(=O)[C@@H]1[C@H](O)CCN1C[C@H]1C[C@H](n2cc(-c3cccc(OCC4CCCO4)c3)c3c(N)ncnc32)C1 (relative stereo) [Example 91, (2S,3R)-1(trans-((1R,3S)-3-(4-amino-5-(3-(tetrahydrofuran-2-yl)methoxy)phenyl)-7H-pyrrolo[2,3-d]pyrimidin-7-yl)cyclobutyl)methyl-3-hydroxylpyrrolidine-2-carboxamide] | 108 nM |
